Measured values as given in patent publication US20230000885A1, “Methods of Treating Psychological and Brain Disorders” (University of Maryland, Baltimore, priority 2019, published 2023).
Entries after “also recorded” stand apart in the source; their conditions may differ.

What was measured:
[1] = tested on: male C57BI/6J mice; assay: sucrose preference test (SPT) after chronic multimodal stress (CMMS); assay type: in vivo; conditions: stress-susceptible CMMS mice; ketanserin 2 mg/kg alone (ketanserin-vehicle); vs values after CMMS
[2] = tested on: male C57BI/6J mice; assay: female urine sniff test (FUST) after chronic multimodal stress; assay type: in vivo; conditions: stress-susceptible CMMS mice; ketanserin 2 mg/kg alone; vs values after CMMS
[3] = tested on: male C57BI/6J mice; assay: locomotion (video, Any-maze) after injection; assay type: in vivo; conditions: ketanserin 2 mg/kg pretreatment, recorded 90 minutes after second injection, with or without psilocybin
[4] = tested on: 5-HT2Rs; conditions: cited from earlier work
[5] = biological target: 5-HTRs; conditions: read-out: affinities at almost all 5-HTRs; cited from earlier work
[6] = biological target: 5-HT1BRs (Homo sapiens, UniProt P28222); conditions: cited from earlier work
5-HT1BRs, sequence (P28222 whole entry): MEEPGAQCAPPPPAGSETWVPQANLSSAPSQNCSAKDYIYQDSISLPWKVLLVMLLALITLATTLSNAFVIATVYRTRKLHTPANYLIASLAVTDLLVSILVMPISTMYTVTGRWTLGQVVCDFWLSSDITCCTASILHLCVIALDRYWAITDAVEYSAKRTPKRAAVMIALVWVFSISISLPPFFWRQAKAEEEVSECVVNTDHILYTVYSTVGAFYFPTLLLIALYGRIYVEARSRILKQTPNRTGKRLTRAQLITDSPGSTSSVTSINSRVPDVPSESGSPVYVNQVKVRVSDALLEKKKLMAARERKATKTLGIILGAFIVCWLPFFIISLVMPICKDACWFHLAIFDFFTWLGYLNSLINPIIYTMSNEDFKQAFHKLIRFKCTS

Structure (SMILES) | sucrose preference (SP) [1] | preference for female urine [2] | time mobile / mobility [3] | total distance travelled [3] | time mobile / mobility ([3]; listed as Ketanserin) | acute psilocybin-induced changes in processing of negative emotional stimuli ([4]; healthy subjects) | psilocybin-induced self-reported perceptual distortions ([4]; humans, ketanserin block of 5-HT2Rs) | Ki [5] [nM] | affinity for 5-HT1BRs [6]
O=C(c1ccc(F)cc1)C1CCN(CCn2c(=O)[nH]c3ccccc3c2=O)CC1 [ketanserin, Ketanserin] | no significant effect on either behavior | nor ketanserin alone (p=0.072; n=4) had a significant effect; also recorded: no significant effect on either behavior | significant effect of ketanserin | main effect of ketanserin | significant increase in mobility | prevented | significantly attenuates self-reported perceptual distortions; also recorded: attenuates psilocybin-induced perceptual alterations | – | –
CN(C)CCc1c[nH]c2cccc(O)c12 [Psilocin] | – | – | – | – | – | – | – | 3 to 500 | high affinity
